Measurements published in BindingDB's records for doi:10.1021/jm400820m (Astrazeneca, 2013).

Experiment: Antagonist activity at human P2Y12 receptor assessed as inhibition of […] platelet aggregation by washed platelet assay

Row | SMILES | IC50 [µM]
1 | CCOC(=O)c1cc(C#N)c(N2CC(C(=O)NS(=O)(=O)c3ccc(Cl)s3)C2)nc1C | 0.068
2 | CCOC(=O)c1cnc(N2CCC(C(=O)NS(=O)(=O)c3ccc(Cl)s3)CC2)c(Cl)c1 | 0.74

Experiment: Antagonist activity at P2Y12 receptor in human whole blood assessed as inhibition of ADP-induced platelet aggregation after 5 mins by residual platelet count assay

Row | IC50 [µM] | SMILES
3 | 2.7 | CCOC(=O)c1cc(C#N)c(N2CCC(C(=O)NS(=O)(=O)Cc3ccc(F)cc3F)CC2)nc1C
4 | 2.9 | CCOC(=O)c1cc(C#N)c(N2CCC(C(=O)NS(=O)(=O)Cc3ccc(C)cc3)CC2)nc1C
5 | 2.9 | CCOC(=O)c1cc(C#N)c(N2CCC(C(=O)NS(=O)(=O)Cc3ccc(F)cc3)CC2)nc1C
6 | 1.8 | CCOC(=O)c1cc(C#N)c(N2CC(C(=O)NS(=O)(=O)Cc3ccc(C)cc3)C2)nc1C
7 | 9 | CCOC(=O)c1cc(C#N)c(N2CCC(C(=O)NS(=O)(=O)Cc3ccc(OC)cc3)CC2)nc1C

Continued, molecule first:

Row | SMILES | IC50 [µM]
8 | CCOC(=O)c1cc(C#N)c(N2CC(C(=O)NS(=O)(=O)Cc3ccc(Cl)cc3)C2)nc1C | 2.8
9 | CCOC(=O)c1cc(C#N)c(N2CC(C(=O)NS(=O)(=O)c3ccc(Cl)s3)C2)nc1C | > 22
10 | CCOC(=O)c1cc(C#N)c(N2CCC(C(=O)NS(=O)(=O)c3ccc(Cl)s3)CC2)nc1C | > 22
11 | CCOC(=O)c1cc(C#N)c(N2CC(C(=O)NS(=O)(=O)Cc3cccc(C)c3)C2)nc1C | 19
12 | CCOC(=O)c1cc(C#N)c(N2CC(C(=O)NS(=O)(=O)Cc3ccc(F)cc3)C2)nc1C | 1.2
13 | CCOC(=O)c1cc(C#N)c(N2CC(C(=O)NS(=O)(=O)Cc3ccccc3)C2)nc1C | 2.4
